Tests used:
Experiment in all cases: relative viability (nuclei count vs DMSO), 5 days (fraction); higher = more cells survive
Afatinib + Lapatinib = compound: CN(C)C/C=C/C(=O)Nc1cc2c(Nc3ccc(F)c(Cl)c3)ncnc2cc1O[C@H]1CCOC1 [Afatinib] + CS(=O)(=O)CCNCc1ccc(-c2ccc3ncnc(Nc4ccc(OCc5cccc(F)c5)c(Cl)c4)c3c2)o1 [Lapatinib] (partner 2 µM)
Outline: (§1)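 Medians of duplicate plates are given as relative viability. That measure is the nuclei count in treated wells divided by the count in vehicle wells. Counts were taken on 4× images of lung cancer cell lines in 1536-well plates, 5 days after pin-tool dosing the day after seeding with one drug alone or a fixed anchor-drug dose plus five library-drug doses (not always all listed) in √10 steps.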

Afatinib + Crizotinib = compound: CN(C)C/C=C/C(=O)Nc1cc2c(Nc3ccc(F)c(Cl)c3)ncnc2cc1O[C@H]1CCOC1 [Afatinib] + C[C@@H](Oc1cc(-c2cnn(C3CCNCC3)c2)cnc1N)c1c(Cl)ccc(F)c1Cl [Crizotinib] (partner 1 µM)
Outline: as §1

Afatinib + Tozasertib = compound: CN(C)C/C=C/C(=O)Nc1cc2c(Nc3ccc(F)c(Cl)c3)ncnc2cc1O[C@H]1CCOC1 [Afatinib] + Cc1cc(Nc2cc(N3CCN(C)CC3)nc(Sc3ccc(NC(=O)C4CC4)cc3)n2)n[nH]1 [Tozasertib] (partner 0.1 µM)
Outline: as §1

Afatinib + Decitabine = compound: CN(C)C/C=C/C(=O)Nc1cc2c(Nc3ccc(F)c(Cl)c3)ncnc2cc1O[C@H]1CCOC1 [Afatinib] + Nc1ncn([C@H]2C[C@H](O)[C@@H](CO)O2)c(=O)n1 [Decitabine] (partner 2 µM)
Outline: as §1

| Cell Line | relative viability (Afatinib + Lapatinib; first compound 0.005 µM) | relative viability (Afatinib + Lapatinib; first compound 0.01581 µM) | relative viability (Afatinib + Lapatinib; first compound 0.05 µM) | relative viability (Afatinib + Lapatinib; first compound 0.1581 µM) | relative viability (Afatinib + Lapatinib; first compound 0.5 µM) | relative viability (Afatinib + Crizotinib; first compound 0.005 µM) | relative viability (Afatinib + Crizotinib; first compound 0.01581 µM) | relative viability (Afatinib + Crizotinib; first compound 0.05 µM) | relative viability (Afatinib + Crizotinib; first compound 0.1581 µM) | relative viability (Afatinib + Crizotinib; first compound 0.5 µM) | relative viability (Afatinib + Tozasertib; first compound 0.005 µM) | relative viability (Afatinib + Tozasertib; first compound 0.01581 µM) | relative viability (Afatinib + Tozasertib; first compound 0.05 µM) | relative viability (Afatinib + Tozasertib; first compound 0.1581 µM) | relative viability (Afatinib + Tozasertib; first compound 0.5 µM) | relative viability (Afatinib + Decitabine; first compound 0.005 µM) | relative viability (Afatinib + Decitabine; first compound 0.01581 µM) | relative viability (Afatinib + Decitabine; first compound 0.05 µM) | relative viability (Afatinib + Decitabine; first compound 0.1581 µM) | relative viability (Afatinib + Decitabine; first compound 0.5 µM) |
| --- | --- | --- | --- | --- | --- | --- | --- | --- | --- | --- | --- | --- | --- | --- | --- | --- | --- | --- | --- | --- |
| HCC-78 | 0.838 | 0.661 | 0.844 | 0.659 | 0.883 | 0.308 | 0.279 | 0.245 | 0.252 | 0.221 | 0.474 | 0.405 | 0.403 | 0.312 | 0.47 | 0.726 | 0.607 | 0.616 | 0.635 | 0.651 |
| HCC-366 | 1.03 | 1.06 | 1.03 | 1.05 | 1.02 | 0.746 | 0.643 | 0.554 | 0.428 | 0.476 | 0.122 | 0.143 | 0.0823 | 0.0878 | 0.069 | 0.293 | 0.407 | 0.383 | 0.324 | 0.34 |
| HCC-827 | 0.0458 | 0.174 | 0.186 | 0.186 | 0.198 | 0.169 | 0.176 | 0.184 | 0.184 | 0.21 | 0.0972 | 0.11 | 0.112 | 0.131 | 0.112 | 0.162 | 0.155 | 0.178 | 0.174 | 0.161 |
| HOP-62 | 1.12 | 1.12 | 1.11 | 1.03 | 1.09 | 1.04 | 0.883 | 1.11 | 1.05 | 0.969 | 0.43 | 0.347 | 0.385 | 0.37 | 0.435 | 0.252 | 0.181 | 0.238 | 0.193 | 0.219 |
| IA-LM | 0.935 | 0.867 | 0.753 | 0.828 | 0.708 | 1.12 | 0.728 | 1.04 | 0.74 | 1.11 | – | – | – | – | – | – | – | – | – | – |
| LC-2-ad | 1.07 | 0.991 | 1.07 | 0.961 | 0.925 | 0.566 | 0.422 | 0.409 | 0.382 | 0.408 | 0.507 | 0.48 | 0.439 | 0.483 | 0.431 | 0.769 | 0.866 | 0.786 | 0.694 | 0.767 |
| LCLC-97TM1 | 1.11 | 0.837 | 1.11 | 0.688 | 0.568 | 0.491 | 0.337 | 0.329 | 0.242 | 0.308 | 0.248 | 0.247 | 0.159 | 0.268 | 0.179 | 0.262 | 0.17 | 0.234 | 0.273 | 0.255 |
| LCLC-103H | – | – | – | – | – | 1 | 1.14 | 1.03 | 0.911 | 1.17 | 0.425 | 0.508 | 0.441 | 0.516 | 0.49 | 0.714 | 0.774 | 0.727 | 0.704 | 0.718 |
| LK-2 | 1.13 | 0.787 | 0.846 | 0.851 | 1.01 | 0.201 | – | 0.195 | 0.234 | 0.243 | 0.161 | 0.173 | 0.2 | 0.182 | 0.166 | 0.41 | 0.258 | 0.288 | 0.328 | 0.301 |
| LOU-NH91 | 0.76 | 0.754 | 0.806 | 0.736 | 0.683 | 0.523 | 0.574 | 0.69 | 0.488 | 0.542 | 0.475 | 0.444 | 0.527 | 0.51 | 0.479 | 0.617 | 0.672 | 0.699 | 0.643 | 0.697 |
| LU99A | 1.08 | 1.07 | 1.02 | 0.979 | 0.871 | 0.591 | 0.54 | 0.539 | 0.55 | 0.525 | 0.275 | 0.273 | 0.256 | 0.254 | 0.231 | 0.903 | 0.93 | 0.929 | 0.873 | 0.964 |
| NCI-H441 | – | – | – | – | – | 0.691 | 0.789 | 0.85 | 0.841 | 0.652 | 0.757 | 0.788 | 0.67 | 0.532 | 0.494 | 0.241 | 0.233 | 0.225 | 0.277 | 0.229 |
| NCI-H1299 | 0.98 | 0.946 | 0.973 | 0.969 | 0.96 | 1.01 | 0.961 | 0.983 | 0.97 | 0.934 | – | – | – | – | – | – | – | – | – | – |
| NCI-H1395 | 1.13 | 0.965 | 1.22 | 1.02 | 0.897 | – | – | – | – | – | 0.784 | 0.759 | 0.712 | 0.709 | 0.667 | 0.773 | 0.741 | 0.744 | 0.657 | 0.672 |
| NCI-H1563 | 0.965 | 0.874 | 1.08 | 1.04 | 0.854 | 0.844 | 0.835 | 0.872 | 0.795 | 0.882 | – | – | – | – | – | – | – | – | – | – |
| NCI-H1648 | – | – | – | – | – | – | – | – | – | – | 0.734 | 0.624 | 0.592 | 0.241 | 0.311 | 0.551 | 0.419 | 0.378 | 0.417 | 0.34 |
| NCI-H1703 | 1.76 | 1.02 | 1.08 | 0.921 | 0.753 | 0.824 | 0.694 | 0.581 | 0.731 | 0.561 | – | – | – | – | – | – | – | – | – | – |
| NCI-H1792 | 0.999 | 0.783 | 0.825 | 0.972 | 0.971 | 1.04 | 1.01 | 0.977 | 0.907 | 0.856 | – | – | – | – | – | 0.505 | 0.592 | 0.489 | 0.522 | 0.513 |
| NCI-H1793 | 0.679 | 0.733 | 0.962 | 0.995 | 0.467 | – | – | – | – | – | 0.315 | 0.377 | 0.252 | 0.147 | 0.242 | 0.43 | 0.344 | 0.329 | 0.27 | 0.417 |
| NCI-H2228 | 1.29 | 1.01 | 0.958 | – | 1.03 | 0.455 | 0.46 | 0.345 | – | 0.34 | 0.271 | 0.259 | 0.217 | 0.191 | 0.205 | – | – | – | – | – |
| NCI-H2342 | – | – | – | – | – | – | – | – | – | – | 0.464 | 0.545 | 0.472 | 0.421 | 0.393 | 0.706 | 0.698 | 0.718 | 0.569 | 0.573 |
